Bounds are passed on as bounds.

The experiment in a line: Antagonist activity at human recombinant CCR5 by cell-cell fusion assay.

On to `Cc1ncnc(C)c1C(=O)N1C[C@H]2CN(CCC3(c4ccccc4)CN(C(=O)C(C)(C)C)C3)C[C@H]2C1` [1-(3-(2-((3aR,6aS)-5-(4,6-dimethylpyrimidine-5-carbonyl)hexahydropyrrolo[3,4-c]pyrrol-2(1H)-yl)ethyl)-3-phenylazetidin-1-yl)-2,2-dimethylpropan-1-one], for which the IC50 turned out to be 0.186 µM. As for `Cc1ncnc(C)c1C(=O)N1C[C@H]2CN(CCC3(c4ccccc4)CN(C(=O)C(C)(C)CO)C3)C[C@H]2C1` [1-(3-(2-((3aR,6aS)-5-(4,6-dimethylpyrimidine-5-carbonyl)hexahydropyrrolo[3,4-c]pyrrol-2(1H)-yl)ethyl)-3-phenylazetidin-1-yl)-3-hydroxy-2,2-dimethylpropan-1-one], the figure is 0.31 µM; as for `Cc1ncnc(C)c1C(=O)N1C[C@H]2CN(CCC3(c4ccccc4)CCN(C(=O)C(C)(C)C)C3)C[C@H]2C1` (stereo partly drawn) [1-(3-(2-((3aR,6aS)-5-(4,6-dimethylpyrimidine-5-carbonyl)hexahydropyrrolo[3,4-c]pyrrol-2(1H)-yl)ethyl)-3-phenylpyrrolidin-1-yl)-2,2-dimethylpropan-1-one], 1.94 µM; as for `Cc1ncnc(C)c1C(=O)N1C[C@H]2CN(CCC3(c4cccc(F)c4)CCN(C(=O)C(C)(C)C)CC3)C[C@H]2C1` [1-(4-(2-((3aR,6aS)-5-(4,6-dimethylpyrimidine-5-carbonyl)hexahydropyrrolo[3,4-c]pyrrol-2(1H)-yl)ethyl)-4-(3-fluorophenyl)piperidin-1-yl)-2,2-dimethylpropan-1-one], 0.129 µM. As to `Cc1ncnc(C)c1C(=O)N1C[C@H]2CN(CCC3(c4cccc(F)c4)CCN(C(=O)C(C)C)CC3)C[C@H]2C1` [1-(4-(2-((3aR,6aS)-5-(4,6-dimethylpyrimidine-5-carbonyl)hexahydropyrrolo[3,4-c]pyrrol-2(1H)-yl)ethyl)-4-(3-fluorophenyl)piperidin-1-yl)-2-methylpropan-1-one], the IC50 came to 0.16 µM. The figure for `Cc1ncnc(C)c1C(=O)N1C[C@H]2CN(CCC3(c4cccc(F)c4)CCN(C(=O)CC(C)(C)C)CC3)C[C@H]2C1` [1-(4-(2-((3aR,6aS)-5-(4,6-dimethylpyrimidine-5-carbonyl)hexahydropyrrolo[3,4-c]pyrrol-2(1H)-yl)ethyl)-4-(3-fluorophenyl)piperidin-1-yl)-3,3-dimethylbutan-1-one] is 0.339 µM; for `Cc1ncnc(C)c1C(=O)N1C[C@H]2CN(CCC3(c4cccc(F)c4)CCN(C(=O)C(C)(C)CO)CC3)C[C@H]2C1` [1-(4-(2-((3aR,6aS)-5-(4,6-dimethylpyrimidine-5-carbonyl)hexahydropyrrolo[3,4-c]pyrrol-2(1H)-yl)ethyl)-4-(3-fluorophenyl)piperidin-1-yl)-3-hydroxy-2,2-dimethylpropan-1-one] it is 1 µM; for `CC(=O)N1CCC(CCN2C[C@@H]3CN(C(=O)c4c(C)ncnc4C)C[C@@H]3C2)(c2cccc(F)c2)CC1` [1-(4-(2-((3aR,6aS)-5-(4,6-dimethylpyrimidine-5-carbonyl)hexahydropyrrolo[3,4-c]pyrrol-2(1H)-yl)ethyl)-4-(3-fluorophenyl)piperidin-1-yl)ethanone] it is over 2.5 µM. The figure for `Cc1ncnc(C)c1C(=O)N1C[C@H]2CN(CCC3(c4ccccc4)CN(C(=O)CC4CCCC4)C3)C[C@H]2C1` [2-cyclopentyl-1-(3-(2-((3aR,6aS)-5-(4,6-dimethylpyrimidine-5-carbonyl)hexahydropyrrolo[3,4-c]pyrrol-2(1H)-yl)ethyl)-3-phenylazetidin-1-yl)ethanone] is 0.136 µM; for `Cc1cc(C#N)nc(C)c1C(=O)N1C[C@H]2CN(CCC3(c4ccccc4)CCN(C(=O)C(C)(C)C)C3)C[C@H]2C1` (stereo partly drawn) [4,6-dimethyl-5-((3aR,6aS)-5-(2-(3-phenyl-1-pivaloylpyrrolidin-3-yl)ethyl)octahydropyrrolo[3,4-c]pyrrole-2-carbonyl)picolinonitrile] it is 0.36 µM; for `Cc1cc(C#N)nc(C)c1C(=O)N1C[C@H]2CN(CCC3(c4ccccc4)CN(C(=O)C4CC(F)(F)C4)C3)C[C@H]2C1` [5-((3aR,6aS)-5-(2-(1-(3,3-difluorocyclobutanecarbonyl)-3-phenylazetidin-3-yl)ethyl)octahydropyrrolo[3,4-c]pyrrole-2-carbonyl)-4,6-dimethylpicolinonitrile] it is 0.001 µM. The figure for `Cc1cc(C#N)nc(C)c1C(=O)N1C[C@H]2CN(CCC3(c4ccccc4)CCN(C(=O)C4CCCC4)C3)C[C@H]2C1` (stereo partly drawn) [5-((3aR,6aS)-5-(2-(1-(cyclopentanecarbonyl)-3-phenylpyrrolidin-3-yl)ethyl)octahydropyrrolo[3,4-c]pyrrole-2-carbonyl)-4,6-dimethylpicolinonitrile] is 0.085 µM.

For the molecule `Cc1cc(C#N)nc(C)c1C(=O)N1C[C@H]2CN(CCC3(c4cccc(F)c4)CCN(C(=O)C(C)(C)C)CC3)C[C@H]2C1` [5-((3aR,6aS)-5-(2-(4-(3-fluorophenyl)-1-pivaloylpiperidin-4-yl)ethyl)octahydropyrrolo[3,4-c]pyrrole-2-carbonyl)-4,6-dimethylpicolinonitrile], the IC50 came out at 0.037 µM. On to `Cc1nc(C(F)(F)F)nc(C)c1C(=O)N1C[C@H]2CN(CCC3(c4ccccc4)CN(C(=O)C4CCOC4)C3)C[C@H]2C1` (stereo partly drawn) [(4,6-dimethyl-2-(trifluoromethyl)pyrimidin-5-yl)((3aR,6aS)-5-(2-(3-phenyl-1-(tetrahydrofuran-3-carbonyl)azetidin-3-yl)ethyl)hexahydropyrrolo[3,4-c]pyrrol-2(1H)-yl)methanone], for which the IC50 turned out to be 0.092 µM. As for `Cc1ncnc(C)c1C(=O)N1C[C@H]2CN(CCC3(c4ccccc4)CN(C(=O)C4CCOC4)C3)C[C@H]2C1` (stereo partly drawn) [(4,6-dimethylpyrimidin-5-yl)((3aR,6aS)-5-(2-(3-phenyl-1-(tetrahydrofuran-3-carbonyl)azetidin-3-yl)ethyl)hexahydropyrrolo[3,4-c]pyrrol-2(1H)-yl)methanone], the IC50 was 0.559 µM. The figure for `Cc1cc(C(F)(F)F)nc(C)c1C(=O)N1C[C@H]2CN(CCC3(c4ccccc4)CN(C(=O)C4CC(F)(F)C4)C3)C[C@H]2C1` [((3aR,6aS)-5-(2-(1-(3,3-difluorocyclobutanecarbonyl)-3-phenylazetidin-3-yl)ethyl)hexahydropyrrolo[3,4-c]pyrrol-2(1H)-yl)(2,4-dimethyl-6-(trifluoromethyl)pyridin-3-yl)methanone] is 0.003 µM. The figure for `Cc1nc(C(F)(F)F)nc(C)c1C(=O)N1C[C@H]2CN(CCC3(c4ccccc4)CN(C(=O)C4CC(F)(F)C4)C3)C[C@H]2C1` [((3aR,6aS)-5-(2-(1-(3,3-difluorocyclobutanecarbonyl)-3-phenylazetidin-3-yl)ethyl)hexahydropyrrolo[3,4-c]pyrrol-2(1H)-yl)(4,6-dimethyl-2-(trifluoromethyl)pyrimidin-5-yl)methanone] is 0.168 µM; for `Cc1ncnc(C)c1C(=O)N1C[C@H]2CN(CCC3(c4ccccc4)CN(C(=O)C4CC(F)(F)C4)C3)C[C@H]2C1` [((3aR,6aS)-5-(2-(1-(3,3-difluorocyclobutanecarbonyl)-3-phenylazetidin-3-yl)ethyl)hexahydropyrrolo[3,4-c]pyrrol-2(1H)-yl)(4,6-dimethylpyrimidin-5-yl)methanone] it is 0.093 µM. The figure for `Cc1cc(C(F)(F)F)nc(C)c1C(=O)N1C[C@H]2CN(CCC3(c4ccccc4)CN(C(=O)C4CCC(F)(F)CC4)C3)C[C@H]2C1` [((3aR,6aS)-5-(2-(1-(4,4-difluorocyclohexanecarbonyl)-3-phenylazetidin-3-yl)ethyl)hexahydropyrrolo[3,4-c]pyrrol-2(1H)-yl)(2,4-dimethyl-6-(trifluoromethyl)pyridin-3-yl)methanone] is 0.002 µM; for `Cc1ccnc(C)c1C(=O)N1C[C@H]2CN(CCC3(c4ccccc4)CN(C(=O)C4CCC(F)(F)CC4)C3)C[C@H]2C1` [((3aR,6aS)-5-(2-(1-(4,4-difluorocyclohexanecarbonyl)-3-phenylazetidin-3-yl)ethyl)hexahydropyrrolo[3,4-c]pyrrol-2(1H)-yl)(2,4-dimethylpyridin-3-yl)methanone] it is 0.015 µM. Regarding `Cc1nc(C(F)(F)F)nc(C)c1C(=O)N1C[C@H]2CN(CCC3(c4ccccc4)CN(C(=O)C4CCC(F)(F)CC4)C3)C[C@H]2C1` [((3aR,6aS)-5-(2-(1-(4,4-difluorocyclohexanecarbonyl)-3-phenylazetidin-3-yl)ethyl)hexahydropyrrolo[3,4-c]pyrrol-2(1H)-yl)(4,6-dimethyl-2-(trifluoromethyl)pyrimidin-5-yl)methanone], the IC50 was 0.005 µM. `Cc1ncnc(C)c1C(=O)N1C[C@H]2CN(CCC3(c4ccccc4)CN(C(=O)C4CCC(F)(F)CC4)C3)C[C@H]2C1` [((3aR,6aS)-5-(2-(1-(4,4-difluorocyclohexanecarbonyl)-3-phenylazetidin-3-yl)ethyl)hexahydropyrrolo[3,4-c]pyrrol-2(1H)-yl)(4,6-dimethylpyrimidin-5-yl)methanone]: the IC50 is 0.01 µM. As for `Cc1ncnc(C)c1C(=O)N1C[C@H]2CN(CCC3(c4ccccc4)CN(S(=O)(=O)C4CCCC4)C3)C[C@H]2C1` [((3aR,6aS)-5-(2-(1-(cyclopentylsulfonyl)-3-phenylazetidin-3-yl)ethyl)hexahydropyrrolo[3,4-c]pyrrol-2(1H)-yl)(4,6-dimethylpyrimidin-5-yl)methanone], the figure is 0.458 µM.

In general, IC50 refers to the concentration that gives 50% inhibition.

For the origin of these results see BindingDB's records for doi:10.1016/j.bmcl.2009.11.072 (Roche Palo Alto, 2010).
